According to patent US4248863A, “Antibiotics saframycins A, B, C, D and E and process for producing the same” (priority 1977, dated 1981):
Values after ≈ are worked out from the molar mass of the structure shown.

What was measured:
[1] = test system: Staphylococcus aureus 209P; test: Antimicrobial spectrum, MIC (Table 4); type: cell-based; settings: 1% glucose nutrient agar, 37° C., 24 or 48 hours
[2] = test system: Staphylococcus aureus Smith; test: Antimicrobial spectrum, MIC (Table 4); type: cell-based; settings: 1% glucose nutrient agar, 37° C., 24 or 48 hours
[3] = test system: Staphylococcus albus; test: Antimicrobial spectrum, MIC (Table 4); type: cell-based; settings: 1% glucose nutrient agar, 37° C., 24 or 48 hours
[4] = test system: Staphylococcus citreus; test: Antimicrobial spectrum, MIC (Table 4); type: cell-based; settings: 1% glucose nutrient agar, 37° C., 24 or 48 hours
[5] = test system: Micrococcus luteus; test: Antimicrobial spectrum, MIC (Table 4); type: cell-based; settings: 1% glucose nutrient agar, 37° C., 24 or 48 hours
[6] = test system: Bacillus subtilis; test: Antimicrobial spectrum, MIC (Table 4); type: cell-based; settings: 1% glucose nutrient agar, 37° C., 24 or 48 hours
[7] = test system: Bacillus cereus; test: Antimicrobial spectrum, MIC (Table 4); type: cell-based; settings: 1% glucose nutrient agar, 37° C., 24 or 48 hours
[8] = test system: Corynebacterium dephtheriae; test: Antimicrobial spectrum, MIC (Table 4); type: cell-based; settings: 1% glucose nutrient agar, 37° C., 24 or 48 hours
[9] = test system: Corynebacterium xerosis; test: Antimicrobial spectrum, MIC (Table 4); type: cell-based; settings: 1% glucose nutrient agar, 37° C., 24 or 48 hours
[10] = test system: Mycobacterium sp. 607; test: Antimicrobial spectrum, MIC (Table 4); type: cell-based; settings: 3% glycerol nutrient agar for acid-fast bacteria, 37° C., 24 or 48 hours
[11] = test system: Mycobacterium phlei; test: Antimicrobial spectrum, MIC (Table 4); type: cell-based; settings: 3% glycerol nutrient agar for acid-fast bacteria, 37° C., 24 or 48 hours
[12] = test system: Mycobacterium avium; test: Antimicrobial spectrum, MIC (Table 4); type: cell-based; settings: 3% glycerol nutrient agar for acid-fast bacteria, 37° C., 24 or 48 hours
[13] = test system: Nocardia asteroides; test: Antimicrobial spectrum, MIC (Table 4); type: cell-based; settings: 37° C., 24 or 48 hours
[14] = test system: Escherichia coli; test: Antimicrobial spectrum, MIC (Table 4); type: cell-based; settings: 1% glucose nutrient agar, 37° C., 24 or 48 hours
[15] = test system: Salmonella typhimurium; test: Antimicrobial spectrum, MIC (Table 4); type: cell-based; settings: 1% glucose nutrient agar, 37° C., 24 or 48 hours
[16] = test system: Shigella dysenteriae Shiga; test: microbe, parasite or virus in culture; type: cell-based; settings: 1% glucose nutrient agar, 37° C., 24 or 48 hours
[17] = test system: Klebsiella pneumoniae; test: Antimicrobial spectrum, MIC (Table 4); type: cell-based; settings: 1% glucose nutrient agar, 37° C., 24 or 48 hours
[18] = test system: Brucella abortus; test: microbe, parasite or virus in culture; type: cell-based; settings: blood agar, 37° C., 24 or 48 hours
[19] = test system: Serratia marcescens; test: Antimicrobial spectrum, MIC (Table 4); type: cell-based; settings: 1% glucose nutrient agar, 37° C., 24 or 48 hours
[20] = test system: Pseudomonas aeruginosa; test: Antimicrobial spectrum, MIC (Table 4); type: cell-based; settings: 1% glucose nutrient agar, 37° C., 24 or 48 hours
[21] = Solubility
[22] = test system: Mucor mucedo; test: Antimicrobial spectrum, MIC (Table 4); settings: Sabouraud.dextrose.agar, 27° C., 48 hours
[23] = test system: Saccharomyces cerevisiae; test: Antimicrobial spectrum, MIC (Table 4); settings: Sabouraud.dextrose.agar, 27° C., 48 hours
[24] = test system: Rhodotorula glutinis; test: Antimicrobial spectrum, MIC (Table 4); settings: Sabouraud.dextrose.agar, 27° C., 48 hours
[25] = test system: Aspergillus niger; test: Antimicrobial spectrum, MIC (Table 4); settings: Sabouraud.dextrose.agar, 27° C., 48 hours
[26] = test system: Aspergillus oryzae; test: Antimicrobial spectrum, MIC (Table 4); settings: Sabouraud.dextrose.agar, 27° C., 48 hours
[27] = test system: Penicillium glaucum; test: Antimicrobial spectrum, MIC (Table 4); settings: Sabouraud.dextrose.agar, 27° C., 48 hours
[28] = test system: Trichophyton mentagrophytes; test: Antimicrobial spectrum, MIC (Table 4); settings: Sabouraud.dextrose.agar, 27° C., 72 hours
[29] = test system: Candida albicans; test: Antimicrobial spectrum, MIC (Table 4); settings: Sabouraud.dextrose.agar, 27° C., 48 hours
[30] = test system: Streptococcus faecalis; test: Antimicrobial spectrum, MIC (Table 4); type: cell-based; settings: 1% glucose nutrient agar, 37° C., 24 or 48 hours
[31] = test system: Streptococcus pyogenes; test: Antimicrobial spectrum, MIC (Table 4); type: cell-based; settings: blood agar, 37° C., 24 or 48 hours
[32] = test system: Streptococcus pyogenes 090R; test: Antimicrobial spectrum, MIC (Table 4); type: cell-based; settings: blood agar, 37° C., 24 or 48 hours
[33] = test system: Staphylococcus salivarius; test: Antimicrobial spectrum, MIC (Table 4); type: cell-based; settings: 1% glucose nutrient agar, 37° C., 24 or 48 hours

## COC1=C(C)C(=O)C2=C(C1=O)[C@H](CNC(=O)C(C)=O)N1C[C@H]3C(=O)c4c(O)c(C)c(OC)c(O)c4[C@@H]([C@@H]1C2)N3C [saframycin D]
[1]
  MIC: 25.0 µg/mL (≈ 45.2 µM)
[2]
  MIC: 50.0 µg/mL (≈ 90.3 µM)
[3]
  MIC: 50.0 µg/mL (≈ 90.3 µM)
[4]
  MIC: 50.0 µg/mL (≈ 90.3 µM)
[5]
  MIC: 50.0 µg/mL (≈ 90.3 µM)
[6]
  MIC: 50.0 µg/mL (≈ 90.3 µM)
[7]
  MIC: 100.0 µg/mL (≈ 181 µM)
[8]
  MIC: 0.195 µg/mL (≈ 0.352 µM)
[9]
  MIC: 6.25 µg/mL (≈ 11.3 µM)
[10]
  MIC: 50.0 µg/mL (≈ 90.3 µM)
[11]
  MIC: 50.0 µg/mL (≈ 90.3 µM)
[12]
  MIC: 50.0 µg/mL (≈ 90.3 µM)
[13]
  MIC: 50.0 µg/mL (≈ 90.3 µM)
[14]
  MIC: > 100.0 µg/mL
[15]
  MIC: > 100.0 µg/mL
[16]
  MIC: > 100.0 µg/mL
[17]
  MIC: 100.0 µg/mL (≈ 181 µM)
[18]
  MIC: 25.0 µg/mL (≈ 45.2 µM)
[19]
  MIC: > 100.0 µg/mL
[20]
  MIC: > 100.0 µg/mL
[21]; acetone
  Solubility: Sparingly soluble
[21]; chloroform
  Solubility: Easily soluble
[21]; esters
  Solubility: Sparingly soluble
[21]; ethyl ether
  Solubility: Sparingly soluble
[21]; lower alcohols
  Solubility: Easily soluble
[21]; n-hexane
  Solubility: Insoluble
[21]; pyridine
  Solubility: Easily soluble
[21]; water
  Solubility: Insoluble
[22]
  MIC: > 100.0 µg/mL
[23]
  MIC: > 100.0 µg/mL
[24]
  MIC: > 100.0 µg/mL
[25]
  MIC: > 100.0 µg/mL
[26]
  MIC: > 100.0 µg/mL
[27]
  MIC: > 100.0 µg/mL
[28]
  MIC: > 100.0 µg/mL
[29]
  MIC: > 100.0 µg/mL

## COC1=C(C)C(=O)C2=C(C1=O)[C@H](CNC(=O)C(C)=O)N1C[C@@H]3[C@@H](O)c4c(O)c(C)c(OC)c(O)c4[C@H]([C@@H]1C2)N3C [saframycin E]
[1]
  MIC: 100.0 µg/mL (≈ 180 µM)
[2]
  MIC: 50.0 µg/mL (≈ 90 µM)
[3]
  MIC: 100.0 µg/mL (≈ 180 µM)
[4]
  MIC: 100.0 µg/mL (≈ 180 µM)
[30]
  MIC: > 100.0 µg/mL
[31]
  MIC: > 100.0 µg/mL
[32]
  MIC: 25.0 µg/mL (≈ 45 µM)
[33]
  MIC: 100.0 µg/mL (≈ 180 µM)
[5]
  MIC: 12.5 µg/mL (≈ 22.5 µM)
[6]
  MIC: 100.0 µg/mL (≈ 180 µM)
[7]
  MIC: 25.0 µg/mL (≈ 45 µM)
[8]
  MIC: 100.0 µg/mL (≈ 180 µM)
[9]
  MIC: 25.0 µg/mL (≈ 45 µM)
[10]
  MIC: 100.0 µg/mL (≈ 180 µM)
[11]
  MIC: 25.0 µg/mL (≈ 45 µM)
[12]
  MIC: 100.0 µg/mL (≈ 180 µM)
[13]
  MIC: 25.0 µg/mL (≈ 45 µM)
[14]
  MIC: > 100.0 µg/mL
[15]
  MIC: > 100.0 µg/mL
[16]
  MIC: > 100.0 µg/mL
[17]
  MIC: 50.0 µg/mL (≈ 90 µM)
[18]
  MIC: 25.0 µg/mL (≈ 45 µM)
[19]
  MIC: > 100.0 µg/mL
[20]
  MIC: > 100.0 µg/mL
[21]; acetone
  Solubility: Sparingly soluble
[21]; chloroform
  Solubility: Sparingly soluble
[21]; esters
  Solubility: Sparingly soluble
[21]; lower alcohols
  Solubility: Easily soluble
[21]; n-hexane
  Solubility: Insoluble
[21]; pyridine
  Solubility: Easily soluble
[21]; water
  Solubility: Insoluble
[22]
  MIC: > 100.0 µg/mL
[23]
  MIC: > 100.0 µg/mL
[24]
  MIC: > 100.0 µg/mL
[25]
  MIC: > 100.0 µg/mL
[26]
  MIC: > 100.0 µg/mL
[27]
  MIC: > 100.0 µg/mL
[28]
  MIC: > 100.0 µg/mL
[29]
  MIC: > 100.0 µg/mL

## COC1=C(C)C(=O)C2=C(C1=O)[C@@H]1[C@@H]3CC4=C(C(=O)C(OC)=C(C)C4=O)[C@H](CNC(=O)C(C)=O)N3C[C@H]([C@H]2OC)N1C [saframycin C]
[1]
  MIC: 25.0 µg/mL (≈ 44 µM)
[2]
  MIC: 6.25 µg/mL (≈ 11 µM)
[3]
  MIC: 25.0 µg/mL (≈ 44 µM)
[4]
  MIC: 25.0 µg/mL (≈ 44 µM)
[30]
  MIC: > 100.0 µg/mL
[31]
  MIC: 25.0 µg/mL (≈ 44 µM)
[32]
  MIC: 12.5 µg/mL (≈ 22 µM)
[33]
  MIC: > 100.0 µg/mL
[5]
  MIC: 6.25 µg/mL (≈ 11 µM)
[6]
  MIC: 25.0 µg/mL (≈ 44 µM)
[7]
  MIC: 100.0 µg/mL (≈ 176 µM)
[8]
  MIC: 3.125 µg/mL (≈ 5.51 µM)
[9]
  MIC: 25.0 µg/mL (≈ 44 µM)
[10]
  MIC: > 100.0 µg/mL
[11]
  MIC: > 100.0 µg/mL
[12]
  MIC: > 100.0 µg/mL
[13]
  MIC: 50.0 µg/mL (≈ 88.1 µM)
[14]
  MIC: > 100.0 µg/mL
[15]
  MIC: > 100.0 µg/mL
[16]
  MIC: > 100.0 µg/mL
[17]
  MIC: 50.0 µg/mL (≈ 88.1 µM)
[18]
  MIC: 50.0 µg/mL (≈ 88.1 µM)
[19]
  MIC: > 100.0 µg/mL
[20]
  MIC: > 100.0 µg/mL
[21]; acetone
  Solubility: Easily soluble
[21]; benzene
  Solubility: Easily soluble
[21]; chloroform
  Solubility: Easily soluble
[21]; esters
  Solubility: Easily soluble
[21]; ethyl ether
  Solubility: Sparingly soluble
[21]; lower alcohols
  Solubility: Easily soluble
[21]; n-hexane
  Solubility: Insoluble
[21]; water
  Solubility: Insoluble
[22]
  MIC: > 100.0 µg/mL
[23]
  MIC: > 100.0 µg/mL
[24]
  MIC: > 100.0 µg/mL
[25]
  MIC: > 100.0 µg/mL
[26]
  MIC: > 100.0 µg/mL
[27]
  MIC: > 100.0 µg/mL
[28]
  MIC: > 100.0 µg/mL
[29]
  MIC: > 100.0 µg/mL
